Test results as given in ChEMBL document CHEMBL3046778, “Design, synthesis and pharmacological screening of hybrid molecules as antihypertensives” (Med Chem Res, 2011).

How the values were obtained:
Rattus norvegicus [1] = assay: Toxicity in Rattus norvegicus Wistar (rat) assessed as Rmax at 40 mg/kg, ip measured after 60 min by ECG analysis (reference value: 0.07 +/- 0.004 mv); type: organism-based; set-up: dose 40 mg/kg, route intraperitoneal; settings: in vivo, 1 h
Rattus norvegicus [2] = assay: Toxicity in Rattus norvegicus Wistar (rat) assessed as Rmax at 40 mg/kg, ip measured after 45 min by ECG analysis (reference value: 0.08 +/- 0.008 mv); type: organism-based; set-up: dose 40 mg/kg, route intraperitoneal; settings: in vivo, 0.75 h
Rattus norvegicus [3] = assay: Toxicity in Rattus norvegicus Wistar (rat) assessed as Rmax at 40 mg/kg, ip measured after 30 min by ECG analysis (reference value: 0.08 +/- 0.008 mv); type: organism-based; set-up: dose 40 mg/kg, route intraperitoneal; settings: in vivo, 0.5 h
Rattus norvegicus [4] = assay: Toxicity in Rattus norvegicus Wistar (rat) assessed as heart rate at 40 mg/kg, ip measured after 60 min by ECG analysis (reference value: 307.62 +/- 0.053 bpm); type: organism-based; set-up: dose 40 mg/kg, route intraperitoneal; settings: in vivo, 1 h
Rattus norvegicus [5] = assay: Toxicity in Rattus norvegicus Wistar (rat) assessed as heart rate at 40 mg/kg, ip measured after 45 min by ECG analysis (reference value: 307.62 +/- 0.023 bpm); type: organism-based; set-up: dose 40 mg/kg, route intraperitoneal; settings: in vivo, 0.75 h
Rattus norvegicus [6] = assay: Toxicity in Rattus norvegicus Wistar (rat) assessed as heart rate at 40 mg/kg, ip measured after 30 min by ECG analysis (reference value: 307.62 +/- 0.439 bpm); type: organism-based; set-up: dose 40 mg/kg, route intraperitoneal; settings: in vivo, 0.5 h
Heart [7] = assay: Inhibition of force of contraction in Hoplobatrachus tigerinus (frog) heart at log dose 3; type: functional
Heart [8] = assay: Inhibition of force of contraction in Hoplobatrachus tigerinus (frog) heart at log dose 2.9; type: functional
Heart [9] = assay: Inhibition of force of contraction in Hoplobatrachus tigerinus (frog) heart at log dose 2.6; type: functional
Heart [10] = assay: Inhibition of force of contraction in Hoplobatrachus tigerinus (frog) heart at log dose 2.3; type: functional
Heart [11] = assay: Inhibition of force of contraction in Hoplobatrachus tigerinus (frog) heart at log dose 2; type: functional
Rattus norvegicus [12] = assay: Toxicity in Rattus norvegicus Wistar (rat) assessed as Rmax at 30 mg/kg, ip measured after 60 min by ECG analysis (reference value: 0.07 +/- 0.004 mv); type: organism-based; set-up: dose 30 mg/kg, route intraperitoneal; settings: in vivo, 1 h
Rattus norvegicus [13] = assay: Toxicity in Rattus norvegicus Wistar (rat) assessed as Rmax at 30 mg/kg, ip measured after 45 min by ECG analysis (reference value: 0.08 +/- 0.008 mv); type: organism-based; set-up: dose 30 mg/kg, route intraperitoneal; settings: in vivo, 0.75 h
Rattus norvegicus [14] = assay: Toxicity in Rattus norvegicus Wistar (rat) assessed as Rmax at 30 mg/kg, ip measured after 30 min by ECG analysis (reference value: 0.08 +/- 0.008 mv); type: organism-based; set-up: dose 30 mg/kg, route intraperitoneal; settings: in vivo, 0.5 h
Rattus norvegicus [15] = assay: Toxicity in Rattus norvegicus Wistar (rat) assessed as heart rate at 30 mg/kg, ip measured after 60 min by ECG analysis (reference value: 307.62 +/- 0.053 bpm); type: organism-based; set-up: dose 30 mg/kg, route intraperitoneal; settings: in vivo, 1 h
Rattus norvegicus [16] = assay: Toxicity in Rattus norvegicus Wistar (rat) assessed as heart rate at 30 mg/kg, ip measured after 45 min by ECG analysis (reference value: 307.62 +/- 0.023 bpm); type: organism-based; set-up: dose 30 mg/kg, route intraperitoneal; settings: in vivo, 0.75 h
Rattus norvegicus [17] = assay: Toxicity in Rattus norvegicus Wistar (rat) assessed as heart rate at 30 mg/kg, ip measured after 30 min by ECG analysis (reference value: 307.62 +/- 0.439 bpm); type: organism-based; set-up: dose 30 mg/kg, route intraperitoneal; settings: in vivo, 0.5 h
Rattus norvegicus [18] = assay: Toxicity in Rattus norvegicus Wistar (rat) assessed as Rmax at 50 mg/kg, ip measured after 60 min by ECG analysis (reference value: 0.07 +/- 0.004 mv); type: organism-based; set-up: dose 50 mg/kg, route intraperitoneal; settings: in vivo, 1 h
Rattus norvegicus [19] = assay: Toxicity in Rattus norvegicus Wistar (rat) assessed as Rmax at 50 mg/kg, ip measured after 45 min by ECG analysis (reference value: 0.08 +/- 0.008 mv); type: organism-based; set-up: dose 50 mg/kg, route intraperitoneal; settings: in vivo, 0.75 h
Rattus norvegicus [20] = assay: Toxicity in Rattus norvegicus Wistar (rat) assessed as Rmax at 50 mg/kg, ip measured after 30 min by ECG analysis (reference value: 0.08 +/- 0.008 mv); type: organism-based; set-up: dose 50 mg/kg, route intraperitoneal; settings: in vivo, 0.5 h
Rattus norvegicus [21] = assay: Toxicity in Rattus norvegicus Wistar (rat) assessed as heart rate at 50 mg/kg, ip measured after 60 min by ECG analysis (reference value: 307.62 +/- 0.053 bpm); type: organism-based; set-up: dose 50 mg/kg, route intraperitoneal; settings: in vivo, 1 h
Rattus norvegicus [22] = assay: Toxicity in Rattus norvegicus Wistar (rat) assessed as heart rate at 50 mg/kg, ip measured after 45 min by ECG analysis (reference value: 307.62 +/- 0.023 bpm); type: organism-based; set-up: dose 50 mg/kg, route intraperitoneal; settings: in vivo, 0.75 h
Rattus norvegicus [23] = assay: Toxicity in Rattus norvegicus Wistar (rat) assessed as heart rate at 50 mg/kg, ip measured after 30 min by ECG analysis (reference value: 307.62 +/- 0.439 bpm); type: organism-based; set-up: dose 50 mg/kg, route intraperitoneal; settings: in vivo, 0.5 h
Rattus norvegicus [24] = assay: Toxicity in Rattus norvegicus Wistar (rat) assessed as Rmax at 10 mg/kg, ip measured after 45 min by ECG analysis (reference value: 0.08 +/- 0.008 mv); type: organism-based; set-up: dose 10 mg/kg, route intraperitoneal; settings: in vivo, 0.75 h
Rattus norvegicus [25] = assay: Toxicity in Rattus norvegicus Wistar (rat) assessed as Rmax at 10 mg/kg, ip measured after 60 min by ECG analysis (reference value: 0.07 +/- 0.004 mv); type: organism-based; set-up: dose 10 mg/kg, route intraperitoneal; settings: in vivo, 1 h
Rattus norvegicus [26] = assay: Toxicity in Rattus norvegicus Wistar (rat) assessed as Rmax at 10 mg/kg, ip measured after 30 min by ECG analysis (reference value: 0.08 +/- 0.008 mv); type: organism-based; set-up: dose 10 mg/kg, route intraperitoneal; settings: in vivo, 0.5 h
Rattus norvegicus [27] = assay: Toxicity in Rattus norvegicus Wistar (rat) assessed as heart rate at 10 mg/kg, ip measured after 60 min by ECG analysis (reference value: 307.62 +/- 0.053 bpm); type: organism-based; set-up: dose 10 mg/kg, route intraperitoneal; settings: in vivo, 1 h
Rattus norvegicus [28] = assay: Toxicity in Rattus norvegicus Wistar (rat) assessed as heart rate at 10 mg/kg, ip measured after 45 min by ECG analysis (reference value: 307.62 +/- 0.023 bpm); type: organism-based; set-up: dose 10 mg/kg, route intraperitoneal; settings: in vivo, 0.75 h
Rattus norvegicus [29] = assay: Toxicity in Rattus norvegicus Wistar (rat) assessed as heart rate at 10 mg/kg, ip measured after 30 min by ECG analysis (reference value: 307.62 +/- 0.035 bpm); type: organism-based; set-up: dose 10 mg/kg, route intraperitoneal; settings: in vivo, 0.5 h

SMILES | Activity (Rattus norvegicus [1]) | Activity (Rattus norvegicus [2]) | Activity (Rattus norvegicus [3]) | Activity (Rattus norvegicus [4]) | Activity (Rattus norvegicus [5]) | Activity (Rattus norvegicus [6]) | inhibition (INH) (Heart [7]) | inhibition (INH) (Heart [8]) | inhibition (INH) (Heart [9]) | inhibition (INH) (Heart [10]) | inhibition (INH) (Heart [11]) | other results
CCOC(=O)C1=C(C)N(CC(O)COc2ccc(/C=N/C(=S)Nc3ccccc3OC)cc2)C(=S)NC1c1ccccc1[N+](=O)[O-] (stereo not given) | 0.13 mV | 0.05 mV | 0.1 mV | 266.08 bpm | 266.08 bpm | 266.08 bpm | 31% | 20% | 20% | 38% | 25% | –
COC(=O)C1=C(C)NC(C)=C(C(=O)OC)C1c1ccccc1[N+](=O)[O-] [NIFEDIPINE] | – | – | – | – | – | – | – | – | – | – | – | Activity (Rattus norvegicus [12]): 0.15 mV; Activity (Rattus norvegicus [13]): 0.1 mV; Activity (Rattus norvegicus [14]): 0.04 mV; Activity (Rattus norvegicus [15]): 521.73 bpm; Activity (Rattus norvegicus [16]): 425.61 bpm; Activity (Rattus norvegicus [17]): 363.63 bpm
CCOC(=O)C1=C(C)N(CC(O)COc2ccc(/C=N/C(=S)Nc3ccc(OC)cc3)cc2)C(=S)NC1c1cccc([N+](=O)[O-])c1 (stereo not given) | 0.14 mV | 0.07 mV | 0.04 mV | 300.22 bpm | 300.22 bpm | 315.87 bpm | – | 50% | 43% | 43% | 50% | –
CCOC(=O)C1=C(C)N(CC(O)COc2ccc(/C=N/C(=S)Nc3ccc(Cl)cc3)cc2)C(=S)NC1c1cccc([N+](=O)[O-])c1 (stereo not given) | 0.07 mV | 0.01 mV | 0.03 mV | 260.42 bpm | 299.78 bpm | 323.85 bpm | – | 25% | 4% | 20% | 13% | –
CCOC(=O)C1=C(C)N(CC(O)COc2ccc(/C=N/C(=S)Nc3ccc(Cl)cc3)cc2)C(=S)NC1c1ccccc1[N+](=O)[O-] (stereo not given) | 0.09 mV | 0.02 mV | 0.08 mV | 315.25 bpm | 324.05 bpm | 324.05 bpm | 50% | 18% | 18% | 16% | 23% | –
CCOC(=O)C1=C(C)N(CC(O)COc2ccc(/C=N/C(=S)Nc3ccc(C(=O)O)cc3)cc2)C(=S)NC1c1cccc([N+](=O)[O-])c1 (stereo not given) | – | – | – | – | – | – | – | 30% | 25% | 5% | 23% | Activity (Rattus norvegicus [18]): 0.12 mV; Activity (Rattus norvegicus [19]): 0.05 mV; Activity (Rattus norvegicus [20]): 0.03 mV; Activity (Rattus norvegicus [21]): 399.26 bpm; Activity (Rattus norvegicus [22]): 399.26 bpm; Activity (Rattus norvegicus [23]): 399.26 bpm
CCOC(=O)C1=C(C)N(CC(O)COc2ccc(/C=N/C(=S)Nc3ccc(OC)cc3)cc2)C(=S)NC1c1ccccc1[N+](=O)[O-] (stereo not given) | 0.13 mV | 0.02 mV | 0.09 mV | 266.41 bpm | 266.41 bpm | 272.19 bpm | – | 66% | 50% | 50% | 30% | –
CCOC(=O)C1=C(C)N(CC(O)COc2ccc(/C=N/C(=S)Nc3ccccc3OC)cc2)C(=S)NC1c1cccc([N+](=O)[O-])c1 (stereo not given) | 0.19 mV | 0.03 mV | 0.08 mV | 215.7 bpm | 214.17 bpm | 226.62 bpm | 36% | 22% | 23% | 10% | 32% | –
CC(C)NCC(O)COc1cccc2ccccc12 (stereo not given) [PROPRANOLOL] | – | – | – | – | – | – | – | – | – | – | – | Activity (Rattus norvegicus [24]): 0.02 mV; Activity (Rattus norvegicus [25]): 0.13 mV; Activity (Rattus norvegicus [26]): 0.04 mV; Activity (Rattus norvegicus [27]): 333 bpm; Activity (Rattus norvegicus [28]): 333 bpm; Activity (Rattus norvegicus [29]): 400 bpm
